Measurements: US9926304B2, “1-(arylmethyl)quinazoline-2,4(1H,3H)-diones as PARP inhibitors and the use thereof” (Impact Therapeutics, Inc., priority 2011, dated 2018)

Legend:
[1] = system: Human breast cancer cell line T47D; test: Cell based caspase-3 activity assay: potentiation of MMS induced apoptosis; conditions: Homo sapiens, T47D, 24 h, T47D cells, 11.1 μg/ml MMS, 24 hours, intracellular caspase-3 activity; read-out: EC50 (nM), potentiation of the apoptosis inducing activity of MMS
Excerpt: Determination of the synergistic potentiation effect of 1-(3-(4-(pyrimidin-2-yl)piperazine-1-carbonyl)benzyl)quinazoline-2,4(1H,3H)-dione and analogs on MMS induced apoptosis using a cell based caspase-3 activity assay
Human breast cancer cell line T47D was used to determine the potentiation effect of PARP inhibitors on the apoptosis inducing activity of DNA damaging anticancer drugs such as MMS. Intracellular caspase-3 activity was used to measure cell apoptosis. The dose response effect of MMS to induce intracellular caspase activity was carefully titrated and the concentration that only induces a minimal level of caspase activity was used to test the potentiation effect of PARP inhibitors. Briefly, T47D cells were grown in DMEM/F12 cell culture medium (Hyclone) supplemented with 0.2 U/ml insulin (Genview) and 10% FBS (Hyclone). A day before experiment, 20000 of T47D cells were seeded to each well of a 96-well cell culture plate and maintained at 37° C. and 5% CO2 in a cell culture incubator overnight. On the day of experiment, cell culture medium was removed. One hundred and eighty μl of fresh medium containing 11.1 μg/ml MMS was added to each well and followed by 20 μl medium containing 10 folds of the concentrations of experimental drugs or reference compounds (ADZ2281 and ABT-888). The serial dilutions of the compounds to be tested and the reference compounds were made in a 1:3 and 1:10 fashion in DMSO. The 10-fold compound solutions were made by mixing 10 μl DMSO serial dilution solutions with 90 μl fresh growth medium. Twenty four hours later, the cells in the 96-well plates were centrifuged at 1000 g for 5 min and the supernatants were removed. Fifty μl lysis buffer (10 mM Tris, pH7.5, 0.1M NaCl, 1 mM EDTA, 0.01% Triton X-100) was added to each well and the plates were shaked horizontally for 30 min at 4° C. After centrifugation at 1000 g at 4° C. for 10 min, 20 μl of supernatant was transferred from each well to a corresponding well in a 384-well black plate. Twenty μl of buffer (20 mM PIPES, pH7.4, 4 mM EDTA and 0.2% CHAPS) containing 20 μM fluorescent caspase-3 substrate ((Ac-DEVD)2-R110, AnaSpec Cat #60304-5) was added to each well afterwards. The plates were shaked to uniformly mix the wells and incubated at 37° C. for 3 h. The fluorescence intensity was measured using the following wavelength: ex: 496 nm, em: 520 nm using a fluorescence plate reader (Varioskan Flash, Thermo Fisher Scientific). The caspase-3 activity induced by the compounds was expressed as a relative fluorescence unit (RFU). The obtained fluorescence readings were analyzed using a commercial graphic software (GraphPad Prism 5) and plotted against the Log value of the compound concentrations. The EC50 values were obtained by fitting the data points with the equation of Y (fluorescence reading)=minimal fluorescence reading+(maximal fluorescence reading−minimal fluorescence reading)/(1+10^(Log EC50−Log C)), where C is the concentration of the testing compound.
The synergistic potentiation effect of compounds on MMS induced apoptosis in T47D cells is expressed as EC50 values and listed in Table 2.

[2] = system: SW620 human colorectal cancer cells; test: MTT based cell viability assay: potentiation of the growth inhibiting activity of MMS; conditions: Homo sapiens, SW-620, 120 h, read-out: IC50 (nM), potentiation of the growth inhibiting activity of MMS, SW620 cells, 1.7 μg/ml MMS, 5 days (120 hours), MTT

For `O=C(c1cccnc1)N1CCN(C(=O)c2cccc(Cn3c(=O)[nH]c(=O)c4ccccc43)c2)CC1` [Example 36, 1-(3-(4-(Pyridine-3-carbonyl)piperazine-1-carbonyl)benzyl)quinazoline-2,4(1H,3H)-dione], the EC50 [1] was > 10000 nM and the IC50 [2] was > 10000 nM.

`O=C(c1cccc(Cn2c(=O)[nH]c(=O)c3ccccc32)c1)N1CCN(C(=O)c2ccccn2)CC1` [Example 37, 1-(3-(4-(Pyridine-2-carbonyl)piperazine-1-carbonyl)benzyl)quinazoline-2,4(1H,3H)-dione] was tested, and the EC50 [1] was 1910 nM and the IC50 [2] was > 10000 nM.

In the case of `O=C(c1ccncc1)N1CCN(C(=O)c2cccc(Cn3c(=O)[nH]c(=O)c4ccccc43)c2)CC1` [Example 38, 1-(3-(4-(Pyridine-4-carbonyl)piperazine-1-carbonyl)benzyl)quinazoline-2,4(1H,3H)-dione], the EC50 [1] is reported as 267 nM and the IC50 [2] is reported as > 10000 nM.

With `O=C(c1cccc(Cn2c(=O)[nH]c(=O)c3ccccc32)c1)N1CCC(Oc2ccccc2)CC1` [Example 39, 1-(3-(4-Phenoxypiperidine-1-carbonyl)benzyl)quinazoline-2,4(1H,3H)-dione] the EC50 [1] was 614 nM and the IC50 [2] was 604 nM.

`O=C(c1ccco1)N1CCN(C(=O)c2cc(Cn3c(=O)[nH]c(=O)c4ccccc43)ccc2F)CC1` [Example 47, 1-(4-Fluoro-3-(4-(furan-2-carbonyl)piperazine-1-carbonyl)benzyl)quinazoline-2,4(1H,3H)-dione] was tested, and the EC50 [1] was 2.6 nM and the IC50 [2] was 54 nM.

Compound `O=C(c1ccc(F)c(Cn2c(=O)[nH]c(=O)c3ccccc32)c1)N1CCN(C(=O)c2cccs2)CC1` [Example 52, 1-(6-Fluoro-3-(4-(thiophene-2-carbonyl)piperazine-1-carbonyl)benzyl)quinazoline-2,4(1H,3H)-dione] has an EC50 [1] of 22 nM and an IC50 [2] of 55 nM.

Work on `O=C(c1ccc(F)c(Cn2c(=O)[nH]c(=O)c3ccccc32)c1)N1CCN(C(=O)C2CCC2)CC1` [Example 53, 1-(3-(4-(Cyclobutylcarbonyl)piperazine-1-carbonyl)-6-fluorobenzyl)quinazoline-2,4(1H,3H)-dione] yielded an EC50 [1] of 18 nM and an IC50 [2] of 59 nM.

`O=C(c1ccc(F)c(Cn2c(=O)[nH]c(=O)c3ccccc32)c1)N1CCN(C(=O)c2ccco2)CC1` [Example 54, 1-(6-Fluoro-3-(4-(furan-2-carbonyl)piperazine-1-carbonyl)benzyl)quinazoline-2,4(1H,3H)-dione] gave an EC50 [1] of 124 nM and an IC50 [2] of 217 nM.

In the case of `O=C(c1ccc(Cl)c(Cn2c(=O)[nH]c(=O)c3ccccc32)c1)N1CCN(C(=O)C2CCCC2)CC1` [Example 55, 1-(6-Chloro-3-(4-(cyclopentylcarbonyl)piperazine-1-carbonyl)benzyl)quinazoline-2,4(1H,3H)-dione], the EC50 [1] is reported as 20 nM and the IC50 [2] is reported as 89 nM.

Compound `O=C(c1ccc(Cl)c(Cn2c(=O)[nH]c(=O)c3ccccc32)c1)N1CCN(C(=O)C2CCCCC2)CC1` [Example 57, 1-(6-Chloro-3-(4-(cyclohexylcarbonyl)piperazine-1-carbonyl)benzyl)quinazoline-2,4(1H,3H)-dione] has an EC50 [1] of 22 nM and an IC50 [2] of 46 nM.

`O=C(c1ccc(Cl)c(Cn2c(=O)[nH]c(=O)c3ccccc32)c1)N1CCN(c2ccccn2)CC1` [Example 58, 1-(6-Chloro-3-(4-(pyridin-2-yl)piperazine-1-carbonyl)benzyl)quinazoline-2,4(1H,3H)-dione] was tested, and the EC50 [1] was 108 nM and the IC50 [2] was 171 nM.

For `O=C(c1cccc(Cn2c(=O)[nH]c(=O)c3ccccc32)c1Cl)N1CCN(C(=O)C2CCCC2)CC1` [Example 59, 1-(2-Chloro-3-(4-(cyclopentylcarbonyl)piperazine-1-carbonyl)benzyl)quinazoline-2,4(1H,3H)-dione], the EC50 [1] was > 10000 nM and the IC50 [2] was > 10000 nM.

In the case of `O=C(c1cccc(Cn2c(=O)[nH]c(=O)c3ccccc32)c1Cl)N1CCN(c2ncccn2)CC1` [Example 60, 1-(2-Chloro-3-(4-(pyrimidin-2-yl)piperazine-1-carbonyl)benzyl)quinazoline-2,4(1H,3H)-dione], the EC50 [1] is reported as > 10000 nM and the IC50 [2] is reported as > 10000 nM.

`O=C(c1cccc(Cn2c(=O)[nH]c(=O)c3ccccc32)c1F)N1CCN(c2ncccn2)CC1` [Example 61, 1-(2-Fluoro-3-(4-(pyrimidin-2-yl)piperazine-1-carbonyl)benzyl)quinazoline-2,4(1H,3H)-dione] showed an EC50 [1] of 17 nM and an IC50 [2] of 61 nM.

Compound `O=C(c1cccc(Cn2c(=O)[nH]c(=O)c3ccccc32)c1F)N1CCN(C(=O)C2CCCC2)CC1` [Example 62, 1-(3-(4-(Cyclopentylcarbonyl)piperazine-1-carbonyl)-2-fluorobenzyl)quinazoline-2,4(1H,3H)-dione] has an EC50 [1] of 379 nM and an IC50 [2] of 816 nM.

`O=C(c1cc(F)cc(Cn2c(=O)[nH]c(=O)c3ccccc32)c1)N1CCN(c2ncccn2)CC1` [Example 63, 1-(5-Fluoro-3-(4-(pyrimidin-2-yl)piperazine-1-carbonyl)benzyl)quinazoline-2,4(1H,3H)-dione] gave an EC50 [1] of 15 nM and an IC50 [2] of 50 nM.

With `O=C(c1cc(F)cc(Cn2c(=O)[nH]c(=O)c3ccccc32)c1)N1CCN(C(=O)C2CCCC2)CC1` [Example 64, 1-(3-(4-(Cyclopentylcarbonyl)piperazine-1-carbonyl)-5-fluorobenzyl)quinazoline-2,4(1H,3H)-dione] the EC50 [1] was 51 nM and the IC50 [2] was 177 nM.

With `O=C(c1cc(Cn2c(=O)[nH]c(=O)c3ccccc32)ccc1Cl)N1CCN(C(=O)C2CCCCC2)CC1` [Example 66, 1-(4-Chloro-3-(4-(cyclohexylcarbonyl)piperazine-1-carbonyl)benzyl)quinazoline-2,4(1H,3H)-dione] the EC50 [1] was 604 nM and the IC50 [2] was 991 nM.

`O=C(c1ccc(Cn2c(=O)[nH]c(=O)c3ccccc32)o1)N1CCN(C(=O)C2CCCC2)CC1` [Example 67, 1-((2-(4-(Cyclopentylcarbonyl)piperazine-1-carbonyl)furan-5-yl)methyl)quinazoline-2,4(1H,3H)-dione] was tested, and the EC50 [1] was 4820 nM and the IC50 [2] was 2050 nM.

`O=C(c1ccc(Cn2c(=O)[nH]c(=O)c3ccccc32)o1)N1CCN(c2nsc3ccccc23)CC1` [Example 68, 1-((2-(4-(Benzo[d]isothiazol-3-yl)piperazine-1-carbonyl)furan-5-yl)methyl)quinazoline-2,4(1H,3H)-dione] was tested, and the EC50 [1] was 635 nM and the IC50 [2] was 673 nM.

With `O=C(c1cccc(Cn2c(=O)[nH]c(=O)c3ccccc32)n1)N1CCN(c2ncccn2)CC1` [Example 71, 1-((2-(4-(Pyrimidin-2-yl)piperazine-1-carbonyl)pyridin-6-yl)methyl)quinazoline-2,4(1H,3H)-dione] the EC50 [1] was 67 nM and the IC50 [2] was 70 nM.

With `O=C(c1cccc(Cn2c(=O)[nH]c(=O)c3ccccc32)c1)N1CCN(c2nccs2)CC1` [Example 72, 1-(3-(4-(Thiazol-2-yl)piperazine-1-carbonyl)benzyl)quinazoline-2,4(1H,3H)-dione] the EC50 [1] was 41 nM and the IC50 [2] was 80 nM.

In the case of `O=C(c1cccc(Cn2c(=O)[nH]c(=O)c3ccccc32)c1)N1CCN(CC2CCCCC2)CC1` [Example 73, 1-(3-(4-(Cyclohexylmethyl)piperazine-1-carbonyl)benzyl)quinazoline-2,4(1H,3H)-dione], the EC50 [1] is reported as 811 nM and the IC50 [2] is reported as 3380 nM.

For `O=C(c1cccc(Cn2c(=O)[nH]c(=O)c3ccccc32)c1)N1CCN(CC2CCCC2)CC1` [Example 74, 1-(3-(4-(Cyclopentylmethyl)piperazine-1-carbonyl)benzyl)quinazoline-2,4(1H,3H)-dione], the EC50 [1] was 2110 nM and the IC50 [2] was > 10000 nM.
